Numbers after ± are expanded uncertainties.
Conditions: Liquid; Ebulliometric method (Recirculating still)

SMILES	Normal boiling temperature
CCCCCCC [heptane]	98.49 ± 0.2 °C
CCC(C)C [2-methylbutane]	28.00 ± 0.21 °C
CC(C)=C(C)C [2,3-dimethyl-2-butene]	73.00 ± 0.2 °C
Cc1ccccc1 [toluene]	110.54 ± 0.2 °C
Cc1ccsc1 [3-methylthiophene]	115.20 ± 0.2 °C

— the NIST ThermoML archive (doi:10.1016/j.fluid.2012.02.005)
